PubChem BioAssay (NCI)
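Five compound concentrations were applied to cells in 96-well plates for 48 hours; endpoints were derived by simple linear interpolation of the resulting dose-response curve. TGI: total growth inhibition.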

How the values were obtained:
Assay in all cases: NCI-60 cell line screen, 48 h
A498 renal = system: A498 renal
A549 NSCLC = system: A549 NSCLC
ACHN renal = system: ACHN renal
BT-549 breast = system: BT-549 breast
CAKI-1 renal = system: CAKI-1 renal
CCRF-CEM leukemia = system: CCRF-CEM leukemia
DU-145 prostate = system: DU-145 prostate
HCT-15 colon = system: HCT-15 colon
HOP-92 NSCLC = system: HOP-92 NSCLC
HS 578T breast = system: HS 578T breast
IGROV1 ovarian = system: IGROV1 ovarian
K-562 leukemia = system: K-562 leukemia
KM12 colon = system: KM12 colon
LOX IMVI melanoma = system: LOX IMVI melanoma
M14 melanoma = system: M14 melanoma
MALME-3M melanoma = system: MALME-3M melanoma
MDA-MB-231 breast = system: MDA-MB-231 breast
MDA-MB-435 = system: MDA-MB-435
MOLT-4 leukemia = system: MOLT-4 leukemia
NCI-H226 lung = system: NCI-H226 lung
NCI-H460 lung = system: NCI-H460 lung
OVCAR-3 ovarian = system: OVCAR-3 ovarian
OVCAR-8 ovarian = system: OVCAR-8 ovarian
PC-3 prostate = system: PC-3 prostate
RPMI-8226 leukemia = system: RPMI-8226 leukemia
SF-295 CNS = system: SF-295 CNS
SF-539 CNS = system: SF-539 CNS
SK-MEL-5 melanoma = system: SK-MEL-5 melanoma
SK-OV-3 ovarian = system: SK-OV-3 ovarian
SN12C renal = system: SN12C renal
SR leukemia = system: SR leukemia
SW-620 colon = system: SW-620 colon
TK-10 renal = system: TK-10 renal
U251 CNS = system: U251 CNS
UACC-257 melanoma = system: UACC-257 melanoma
UACC-62 melanoma = system: UACC-62 melanoma
786-0 renal = system: 786-0 renal
COLO 205 colon = system: COLO 205 colon
EKVX NSCLC = system: EKVX NSCLC
HCC-2998 colon = system: HCC-2998 colon
HCT-116 colon = system: HCT-116 colon
HL-60(TB) leukemia = system: HL-60(TB) leukemia
HOP-62 NSCLC = system: HOP-62 NSCLC
HT29 colon = system: HT29 colon
MCF7 breast = system: MCF7 breast
NCI-H23 lung = system: NCI-H23 lung
NCI-H522 lung = system: NCI-H522 lung
NCI/ADR-RES ovarian = system: NCI/ADR-RES ovarian
OVCAR-4 ovarian = system: OVCAR-4 ovarian
OVCAR-5 ovarian = system: OVCAR-5 ovarian
RXF 393 renal = system: RXF 393 renal
SF-268 CNS = system: SF-268 CNS
SK-MEL-2 melanoma = system: SK-MEL-2 melanoma
SK-MEL-28 melanoma = system: SK-MEL-28 melanoma
SNB-19 CNS = system: SNB-19 CNS
SNB-75 CNS = system: SNB-75 CNS
T-47D breast = system: T-47D breast
UO-31 renal = system: UO-31 renal

## c1ccc2c(c1)ccc1cc3cc(NCCCCNc4ccc5nc6c(ccc7ccccc76)cc5c4)ccc3nc12
A498 renal
  TGI: 2.43 µM
A549 NSCLC
  TGI: 2.84 µM
ACHN renal
  TGI: 2.68 µM
BT-549 breast
  TGI: 4.06 µM
CAKI-1 renal
  TGI: 3.54 µM
CCRF-CEM leukemia
  TGI: 2.29 µM
DU-145 prostate
  TGI: 2.67 µM
HCT-15 colon
  TGI: 2.01 µM
HOP-92 NSCLC
  TGI: 4.09 µM
HS 578T breast
  TGI: 4.25 µM
IGROV1 ovarian
  TGI: 2.99 µM
K-562 leukemia
  TGI: 3.55 µM
KM12 colon
  TGI: 0.532 µM
LOX IMVI melanoma
  TGI: 3.43 µM
M14 melanoma
  TGI: 3.29 µM
MALME-3M melanoma
  TGI: 3.16 µM
MDA-MB-231 breast
  TGI: 0.348 µM
MDA-MB-435
  TGI: 3.45 µM
MOLT-4 leukemia
  TGI: 0.418 µM
NCI-H226 lung
  TGI: 3.24 µM
NCI-H460 lung
  TGI: 0.53 µM
OVCAR-3 ovarian
  TGI: 4.06 µM
OVCAR-8 ovarian
  TGI: 0.303 µM
PC-3 prostate
  TGI: 2.67 µM
RPMI-8226 leukemia
  TGI: 1.48 µM
SF-295 CNS
  TGI: 3.03 µM
SF-539 CNS
  TGI: 2.88 µM
SK-MEL-5 melanoma
  TGI: 2.67 µM
SK-OV-3 ovarian
  TGI: 6.34 µM
SN12C renal
  TGI: 2.7 µM
SR leukemia
  TGI: 0.043 µM
SW-620 colon
  TGI: 0.405 µM
TK-10 renal
  TGI: 3.18 µM
U251 CNS
  TGI: 0.374 µM
UACC-257 melanoma
  TGI: 3.11 µM
UACC-62 melanoma
  TGI: 3.04 µM

## CN(C)c1ccc(/C=C2\N=C(c3ccccc3)N(c3nc4ccc(Sc5ccccc5)cc4[nH]3)C2=O)cc1
786-0 renal
  TGI: > 100 µM
A498 renal
  TGI: > 100 µM
A549 NSCLC
  TGI: > 100 µM
ACHN renal
  TGI: > 100 µM
BT-549 breast
  TGI: > 100 µM
CAKI-1 renal
  TGI: > 100 µM
CCRF-CEM leukemia
  TGI: > 100 µM
COLO 205 colon
  TGI: 45.9 µM
DU-145 prostate
  TGI: > 100 µM
EKVX NSCLC
  TGI: > 100 µM
HCC-2998 colon
  TGI: 33.5 µM
HCT-116 colon
  TGI: > 100 µM
HCT-15 colon
  TGI: > 100 µM
HL-60(TB) leukemia
  TGI: 33.3 µM
HOP-62 NSCLC
  TGI: > 100 µM
HOP-92 NSCLC
  TGI: > 100 µM
HS 578T breast
  TGI: > 100 µM
HT29 colon
  TGI: > 100 µM
IGROV1 ovarian
  TGI: > 100 µM
K-562 leukemia
  TGI: 96.6 µM
KM12 colon
  TGI: > 100 µM
LOX IMVI melanoma
  TGI: > 100 µM
M14 melanoma
  TGI: > 100 µM
MALME-3M melanoma
  TGI: > 100 µM
MCF7 breast
  TGI: > 100 µM
MDA-MB-231 breast
  TGI: > 100 µM
MDA-MB-435
  TGI: 38.6 µM
MOLT-4 leukemia
  TGI: > 100 µM
NCI-H23 lung
  TGI: > 100 µM
NCI-H460 lung
  TGI: > 100 µM
NCI-H522 lung
  TGI: > 100 µM
NCI/ADR-RES ovarian
  TGI: 85.3 µM
OVCAR-3 ovarian
  TGI: 59.3 µM
OVCAR-4 ovarian
  TGI: > 100 µM
OVCAR-5 ovarian
  TGI: > 100 µM
OVCAR-8 ovarian
  TGI: > 100 µM
PC-3 prostate
  TGI: > 100 µM
RPMI-8226 leukemia
  TGI: 71.4 µM
RXF 393 renal
  TGI: > 100 µM
SF-268 CNS
  TGI: > 100 µM
SF-295 CNS
  TGI: 72.2 µM
SK-MEL-2 melanoma
  TGI: 60.3 µM
SK-MEL-28 melanoma
  TGI: > 100 µM
SK-MEL-5 melanoma
  TGI: > 100 µM
SK-OV-3 ovarian
  TGI: 49.2 µM
SN12C renal
  TGI: > 100 µM
SNB-19 CNS
  TGI: > 100 µM
SNB-75 CNS
  TGI: > 100 µM
SW-620 colon
  TGI: > 100 µM
T-47D breast
  TGI: > 100 µM
TK-10 renal
  TGI: 81.3 µM
U251 CNS
  TGI: > 100 µM
UACC-257 melanoma
  TGI: 90.9 µM
UACC-62 melanoma
  TGI: 82.4 µM
UO-31 renal
  TGI: > 100 µM

## CCn1c(-c2cc3ccccc3cc2OC(C)=O)n[nH]c1=S
786-0 renal
  TGI: > 100 µM
A498 renal
  TGI: 84.8 µM
ACHN renal
  TGI: > 100 µM
CAKI-1 renal
  TGI: > 100 µM
CCRF-CEM leukemia
  TGI: 34.2 µM
DU-145 prostate
  TGI: 81.1 µM
EKVX NSCLC
  TGI: 57.9 µM
HCC-2998 colon
  TGI: 38.5 µM
HCT-116 colon
  TGI: 41.7 µM
HCT-15 colon
  TGI: 87.1 µM
HL-60(TB) leukemia
  TGI: 19.5 µM
HOP-62 NSCLC
  TGI: > 100 µM
HOP-92 NSCLC
  TGI: > 100 µM
HS 578T breast
  TGI: 54.6 µM
HT29 colon
  TGI: > 100 µM
IGROV1 ovarian
  TGI: > 100 µM
K-562 leukemia
  TGI: 33.1 µM
KM12 colon
  TGI: > 100 µM
LOX IMVI melanoma
  TGI: > 100 µM
M14 melanoma
  TGI: > 100 µM
MCF7 breast
  TGI: > 100 µM
MDA-MB-231 breast
  TGI: 80.4 µM
MDA-MB-435
  TGI: > 100 µM
MOLT-4 leukemia
  TGI: 51.3 µM
NCI-H226 lung
  TGI: > 100 µM
NCI-H23 lung
  TGI: 87.9 µM
NCI-H460 lung
  TGI: 69.8 µM
NCI-H522 lung
  TGI: 38.8 µM
NCI/ADR-RES ovarian
  TGI: 60.9 µM
OVCAR-3 ovarian
  TGI: 67.8 µM
OVCAR-4 ovarian
  TGI: > 100 µM
OVCAR-5 ovarian
  TGI: > 100 µM
OVCAR-8 ovarian
  TGI: > 100 µM
PC-3 prostate
  TGI: 39.2 µM
RPMI-8226 leukemia
  TGI: 44.6 µM
RXF 393 renal
  TGI: 33.5 µM
SF-268 CNS
  TGI: > 100 µM
SF-295 CNS
  TGI: > 100 µM
SF-539 CNS
  TGI: > 100 µM
SK-MEL-2 melanoma
  TGI: 41.3 µM
SK-MEL-28 melanoma
  TGI: > 100 µM
SK-MEL-5 melanoma
  TGI: 38.2 µM
SK-OV-3 ovarian
  TGI: > 100 µM
SR leukemia
  TGI: 4.79 µM
SW-620 colon
  TGI: > 100 µM
T-47D breast
  TGI: 43.3 µM
TK-10 renal
  TGI: 75.6 µM
U251 CNS
  TGI: 51.4 µM
UACC-257 melanoma
  TGI: 62.6 µM
UO-31 renal
  TGI: > 100 µM
